Experimental data as given in patent publication US5571799A, “(2'-5') oligoadenylate analogues useful as inhibitors of host-v5.-graft response” (Basco, Ltd., priority 1994, dated 1996).
Entries after “also recorded” stand apart in the source; their conditions may differ.

Tests used:
[1] = test system: interleukin-II; experiment: Immune system of monkeys: interleukin-II; type: in vivo, Macaque Rh. monkeys
Experimental: Immunosuppressive activity of the prototype 2'-5'A3 and two analogues (2'-5')A2 Ar-epoxy and (2'-5')A2 A^l-epoxy were investigated in monkeys. The experiments were performed on 4 year-old Macaque Rh. monkeys. The levels of the principal subpopulations of T-lymphocytes, IgA, IgG, IgM and the amount of α- and γ-interferon and interleukin II after administration (2'-5')olygoadenylate and its analogies at the concentration of 50 and 25 μg/kg of the body weight was investigated.
Serum levels of IgG, IgA, IgM were determined by radial immunodiffusion using antisera against human immunoglobulin A, M, G. The amount of interferon and interleukine-II were determined by the method of Lopez-Botet M. et al., 1982.

[2] = test system: T-suppressors; experiment: T-suppressors in monkeys after kidney transplantation; type: in vivo, Macaque Rh. monkeys; settings: for T-suppress: 50 μg/kg IV, 2 days pre-op. 44
Experimental: FLOW CYTOFLUOROGRAFIC ANALYSIS OF LYMPHOCYTE SUBSETS
Blood samples (100 μl of whole blood) were placed into a 12×17 tube. To these cells 20 μl of purified monoclonal antibodies were added with specificity for human cytotoxic/suppressor cells anti-Leu-2a (CD8), human helper/inducer anti-Leu-3a (CD4) and FITC conjugated monoclonal antibodies with specificity for natural killer cells-anti-Leu11c (CD16) (Becton Dickinson, San Jose). After 30 minutes incubation on ice, the cells were washed once and 20 μl of goat-antimouse chain phycoerythrin (Sigma P1286) conjugate were added to the tube with anti-Leu-2a and anti-Leu-3a monoclonal antibodies.
After erythrocyte lysing with FACS lysing solution (Becton Dickinson, San Jose) the cells were analyzed on FACScan flow cytometer (Becton Dickinson, San Jose) with scatter gate set on lymphocyte fraction.
The experiments were performed on 4 year-old Macaque Rh. monkeys. Each cohort consisted of 3 animals. […] The results of the experiments were evaluated clinically: by the presence or absence of urination from the ureterocutaneostoma.
After intravenous anesthesia with Ketalar®, an extraperitoneal access to the left kidney was performed through layer by layer cuts to the left lumbar region. The kidney was excised from the surrounding tissues. A clamp was applied to the vessel limb; the artery, the vein and the ureter each were prepared for anastomosis separately. The kidney was excised and transferred for hypothermal conservation in Collins' solution.
The donor kidney was transplanted into the recipient. […] anastomosis was performed: the graft arteries and veins attached to the appropriate recipient kidney vessels through plastic tubes. The kidney having been resuscitated by in blood flow, acquired the normal color and turgor. Additional hemostasis in the wound was performed. Ureterocutaneostomy was performed, which was followed by applying layer-upon-layer sutures on the wound and its aseptic dressing.
The monkeys were narcotized by means of the intravenous anesthesia with Ketalar® and subjected to medial laparotomy from the xiphoid down to the pubic joint. Access to the left Kidney was made extraperitoneally. The kidney was teased from the surrounding tissues. A clamp was put on the vessel limb; the artery, the vein and the ureter were dressed separately; the kidney was cut and transferred for hypothermal conservation in Collins' solution.
The internal iliac artery and the external iliac vein were extracted extra-peritoneally, immobilized and prepared for anastomosis. The donor kidney was transferred to the recipient. Vessel anastomosis was performed: the graft arteries were anastomosed with the internal iliac artery according to the end-to-end method and the graft veins were anastomosed with the external iliac vein according to the end-to-side method. The kidney having been engaged in blood flow, acquired a normal color and turgor. Bleeding on the line of the arterial anastomosis was stopped by making additional sutures. Ureterocutaneostomy was performed. The abdominal cavity was lavaged with the solution of disodium carbenicillin. Layer-upon-layer sutures on the wound were applied. Aseptic dressing was performed.
During our experiments we have divided monkeys into two groups, three monkeys to each group. For the first group (2'-5')A2 Ar-epoxy was administered intravenously at concentration of 50 μg/kg two days before the operation and at the second, sixth, and twelfth day after the operation and then every sixth day. […] After transplantation kidney functions were restored within 10 hours.
The administration schedule of (2'-5')A2 Ar-epoxy was modified slightly for the second group of monkeys. The preparation was injected two days before the operation and every other day at a concentration of 50 μg/kg during the entire post-transplantation period. […] The number of T-helpers dropped correspondingly from 37% to 7%. […] During the entire postoperative period, this activity tendency continues.

[3] = test system: T-lymphocytes (murine splenocytes) stimulated with Concanavalin A; experiment: In vitro blast-transformation of murine lymphocytes, Con A (T-lymphocyte mitogen), [3H]-thymidine; type: cell-based, mouse (CBA); settings: for DNA synthesis at [^3 H]-thymidine [incorporated counts/min.]: Con A 5 μg/ml
Excerpt: The immune reactions in an organism begins with the division of lymphocytes. In vitro investigation of the lymphocyte blast-transformationreaction under the influence of mitogens makes it possible to use this model system to select chemically synthesized 2'-5'A3 analogues which suppress division of lymphocytes. Using Concanavalin A and lipopolysaccharide as mitogens, the effect of analogues on the division of T- and β-lymphocytes may be investigated.
CBA mice 8-10 weeks old were used for these experiments. A suspension of mouse splenocytes were obtained by gently teasing spleens with forceps. […] Cultures were maintained in 5% CO2 at 37° C. One μCi of ^3 H-thymidine (Isotop®) was added to each well 4 hours before the end of the incubation period. Incorporation of ^3 H-thymidine into cellular DNA was determined by liquid scintillation counting using standard techniques. Oligoadenylate was added to the medium at the beginning of culturing to achieve the final concentration.
(Con A being a mitogen for T-lymphocytes and LPS being a mitogen for β-lymphocytes).

## Adenylyl (2'-5')adenylyl (2'-5')-9-(2,3-anhydro-β-D-ribofuranosyl) adenine disodium salt [(2'-5')A2 Ar-epoxy]
[1]; monkeys, single IV, two weeks
  effect on interleukin-II production, in words: suppresses production of interleukin-II
[1]; single IV 25 μg/kg, day 0 (baseline)
  Interleukin-II: 4 Units per 10,000 lymphocytes
[1]; single IV 25 μg/kg, day 1
  Interleukin-II: 2 Units per 10,000 lymphocytes
[1]; single IV 25 μg/kg, day 2
  Interleukin-II: 2 Units per 10,000 lymphocytes
[1]; single IV 25 μg/kg, day 12
  Interleukin-II: 2 Units per 10,000 lymphocytes
[1]; single IV 25 μg/kg, day 21
  Interleukin-II: 4 Units per 10,000 lymphocytes
[1]; single IV 50 μg/kg, day 0 (baseline)
  Interleukin-II: 8 Units per 10,000 lymphocytes
[1]; single IV 50 μg/kg, day 1
  Interleukin-II: 4 Units per 10,000 lymphocytes
[1]; single IV 50 μg/kg, day 2
  Interleukin-II: 4 Units per 10,000 lymphocytes
[1]; single IV 50 μg/kg, day 12
  Interleukin-II: 4 Units per 10,000 lymphocytes
[1]; single IV 50 μg/kg, day 21
  Interleukin-II: 4 Units per 10,000 lymphocytes
[2]; day 1 post-op.
  T-suppress: 40.6%
[2]; day 5 post-op.
  T-suppress: 44%
[2]; day 8 post-op.
  T-suppress: 47%
[2]; day 13 post-op.
  T-suppress: 47.7%
[2]; day 18 post-op.
  T-suppress: 57.5%
[2]; post-transplantation, 50 μg/kg, disodium salt
  effect on T-suppressors in transplanted animals, in words: stimulates the number of T-suppressor cells in transplanted monkeys; also recorded: stimulates somewhat the number of T-suppressors
[2]; second group, 50 μg/kg every other day, 7 days after surgery, presurgical 44%
  quantity of T-suppressors: 49%
[3]; 5 × 10^-6 M, control 22,296
  DNA synthesis at [^3 H]-thymidine [incorporated counts/min.]: 16,399 counts/min.
[3]; Con A, T-lymphocytes
  inhibition of lymphocyte blast-transformation, in words: suppresses the T-lymphocyte division to a greater extent
[3]; Table 4, 1 × 10^-5 M, control 5,428
  DNA synthesis at [^3 H]-thymidine [incorporated counts/min.]: 4,172 counts/min.
[3]; Table 4, 5 × 10^-6 M, control 5,428
  DNA synthesis at [^3 H]-thymidine [incorporated counts/min.]: 1,733 counts/min.
[3]; Table 4, 5 × 10^-7 M, control 5,428
  DNA synthesis at [^3 H]-thymidine [incorporated counts/min.]: 3,865 counts/min.
[3]; Table 4, 5 × 10^-8 M, control 5,428
  DNA synthesis at [^3 H]-thymidine [incorporated counts/min.]: 5,383 counts/min.
[3]; Table 4, 5 × 10^-9 M, control 5,428
  DNA synthesis at [^3 H]-thymidine [incorporated counts/min.]: 1,599 counts/min.
[3]; Table 4, 5 × 10^-10 M, control 5,428
  DNA synthesis at [^3 H]-thymidine [incorporated counts/min.]: 777 counts/min.
[3]; Table 4, 5 × 10^-11 M, control 5,428
  DNA synthesis at [^3 H]-thymidine [incorporated counts/min.]: 5,271 counts/min.
[3]; Table 5, 1 × 10^-5 M, control 5,108
  DNA synthesis at [^3 H]-thymidine [incorporated counts/min.]: 2,960 counts/min.
[3]; Table 5, 5 × 10^-6 M, control 5,108
  DNA synthesis at [^3 H]-thymidine [incorporated counts/min.]: 4,732 counts/min.
[3]; Table 5, 5 × 10^-7 M, control 5,108
  DNA synthesis at [^3 H]-thymidine [incorporated counts/min.]: 2,237 counts/min.
[3]; Table 5, 5 × 10^-8 M, control 5,108
  DNA synthesis at [^3 H]-thymidine [incorporated counts/min.]: 1,355 counts/min.
[3]; Table 5, 5 × 10^-9 M, control 5,108
  DNA synthesis at [^3 H]-thymidine [incorporated counts/min.]: 6,915 counts/min.
[3]; Table 5, 5 × 10^-10 M, control 5,108
  DNA synthesis at [^3 H]-thymidine [incorporated counts/min.]: 1,425 counts/min.
